# Reference: US5719278A, “Tricyclic benzazepine vasopressin antagonists” (American Cyanamid Company, priority 1996, dated 1998)
# Key:
# [1] = biological target: T1, Rat Kidney Medullary V2 Receptors (Rattus norvegicus, UniProt Q00788); assay: Binding Assay to Rat Kidney Medullary V2 Receptors; conditions: Rat Kidney Medullary V2 Receptors (no asterisk)
# T1 construct: Medullary tissues from rat kidneys are dissected out; from tissue; host or cells: rat kidney medulla membranes
# Procedure: Binding Assay to Rat Kidney Medullary V2 Receptors
# Medullary tissues from rat kidneys are dissected out, cut into small pieces and let soak in a […] sodium chloride solution containing 1.0 mM EDTA with many changes of the liquid phase, until the solution is clear of blood. The tissue is homogenized in a 0.25M sucrose solution containing 1.0 mM EDTA and 0.1 mM PMSF using a Potter-Elvehjem homogenizer with a teflon pestle. The homogenate is filtered through several layers (4 layers) of cheese cloth. The filtrate is rehomogenized using a dounce homogenizer, with a tight fitting pestle. The final homogenate is contrifuged at 1500×g for 15 min. The nuclear pellet is discarded and the supernatant fluid recentrifuged at 40,000×g for 30 min. The resulting pellet formed contains a dark inner part with the exterior, slightly pink. The pink outer part is suspended in a small amount of 50.0 mM Tris.HCl buffer, pH 7.4. The protein content is determined by the Lowry's method (Lowry et al, J. Biol. Chem., 1953). The membrane suspension is stored at -70° C., in 50.0 mM Tris.HCl, containing 0.2% inactivated BSA and 0.1 mM PMSF in aliquots of 1.0 ml containing 10.0 mg protein per ml of suspension until use in subsequent binding experiments.
# For binding experiments, the following is added in μl volume to wells of a 96 well format of a microtiter plate: 100.0 μl of 100.0 mM Tris.HCl buffer containing 0.2% heat inactivated BSA, 10.0 mM MgCl2 and a mixture of protease inhibitors: leupeptin, 1.0 mg %; aprotinin, 1.0 mg %; 1,10-phenanthroline, 2.0 mg %; trypsin inhibitor, 10.0 mg % and 0.1 mM PMSF, 20.0 μl of [^3 H]Arginine^8, vasopressin (S.A. 75.0 Ci/mmole) at 0.8 nM and the reaction initiated by the addition of 80.0 μl of tissue membranes (200.0 μg tissue protein). The plates are left undisturbed on the bench top for 120 min. to reach equilibrium. Non-specific binding is assessed in the presence of 1.0 μM of unlabeled ligand, added in 20 μl volume. For test compounds, these are solubilized in 50% dimethylsulfoxide (DMSO) and added in 20.0 μl volume to a final incubation volume of 200 μl. Upon completion of binding, the content of each well is filtered off, using a Brandel® cell Harvester (Gaithersburg, Md.). The radioactivity trapped on the filter disk by the ligand-receptor complex is assessed by liquid scintillation counting in a Packard LS Counter, with an efficiency of 65% for tritium. The data are analyzed for IC50 values by the LUNDON-2 program for competition (LUNDON SOFTWARE, Ohio).
# oxytocin receptors = biological target: T2, oxytocin receptors (Rattus norvegicus, UniProt P70536); assay: Oxytocin Receptor Binding; design: species or system Sprague-Dawley rat; conditions: for IC50: 1.0 nM [^3 H]OT, 60 min., 22° C.
# T2 construct: The uteri are dissected out, cleaned of fat and connective tissues; from tissue; host or cells: uterus of DES-treated female Sprague-Dawley rats
# T2 sequence (P70536 1-388): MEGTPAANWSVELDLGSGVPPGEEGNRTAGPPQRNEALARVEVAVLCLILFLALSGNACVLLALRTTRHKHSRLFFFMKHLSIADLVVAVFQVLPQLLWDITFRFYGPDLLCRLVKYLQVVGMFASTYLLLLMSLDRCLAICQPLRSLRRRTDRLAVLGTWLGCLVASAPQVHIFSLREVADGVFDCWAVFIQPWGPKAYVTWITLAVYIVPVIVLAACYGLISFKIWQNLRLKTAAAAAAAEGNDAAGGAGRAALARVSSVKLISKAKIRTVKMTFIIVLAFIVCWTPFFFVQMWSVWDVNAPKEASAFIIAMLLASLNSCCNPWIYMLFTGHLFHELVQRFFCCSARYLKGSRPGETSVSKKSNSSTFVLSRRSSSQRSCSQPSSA
# Procedure: Oxytocin Receptor Binding
# Female Sprague-Dawley rats weighing approximately 200-250 g are injected intramuscularly (i.m.) with 0.3 mg/kg of body weight of diethylstilbestrol (DES). The rats are sacrificed 18 hours later under pentobarbital anesthesia. The uteri are dissected out, cleaned of fat and connective tissues and rinsed in 50 ml of normal saline. The tissue pooled from six rats is homogenized in 50 ml of […] TriS.HCl, containing 0.5 mM dithiothreitol and 1.0 mM EDTA, adjusted to pH 7.4, using a polytron at setting 6 with three passes of 10 sec each. The homogenate is passed through two (2) layers of cheesecloth and the filtrate contrifuged at 1000×g for 10 min. The clear supernatant is removed and recentrifuged at 165,000×g for 30 min. The resulting pellet containing the oxytocin receptors is resuspended in 50.0 mM Tris.HCl containing 5.0 mM MgCl2 at pH 7.4, to give a protein concentration of 2.5 mg/ml of tissue suspension. This preparation is used in subsequent binding assays with [^3 H]Oxytocin.
# Binding of 3,5-[^3 H]Oxytocin ([^3 H]OT) to its receptors is done in microtiter plates using [^3 H]OT, at various concentrations, in an assay buffer of 50.0 mM Tris.HCl, pH 7.4 and containing 5.0 mM MgCl2, and a mixture of protease inhibitors: BSA, 0.1 mg; aprotinin, 1.0 mg; 1,10-phenanthroline, 2.0 mg; […], 10.0 mg; and PMSF, 0.3 mg per 100 ml of buffer solution. Non-specific binding is determined in the presence of 1.0 uM unlabeled OT. The binding reaction is terminated after 60 min., at 22° C., by rapid filtration through glass fiber filters using a Brandel® cell harvester (Biomedical Research and Development Laboratories, Inc., Gaithersburg, Md.). Competition experiments are conducted at equilibrium using 1.0 nM [^3 H]OT and varying the concentration of the displacing agents. The concentrations of agent displacing 50% of [^3 H]OT at its sites (IC50) are calculated by a computer assisted LUNDON-2 program (LUNDON SOFTWARE INC., Ohio, U.S.A.).
# T1 sequence (Q00788 whole entry): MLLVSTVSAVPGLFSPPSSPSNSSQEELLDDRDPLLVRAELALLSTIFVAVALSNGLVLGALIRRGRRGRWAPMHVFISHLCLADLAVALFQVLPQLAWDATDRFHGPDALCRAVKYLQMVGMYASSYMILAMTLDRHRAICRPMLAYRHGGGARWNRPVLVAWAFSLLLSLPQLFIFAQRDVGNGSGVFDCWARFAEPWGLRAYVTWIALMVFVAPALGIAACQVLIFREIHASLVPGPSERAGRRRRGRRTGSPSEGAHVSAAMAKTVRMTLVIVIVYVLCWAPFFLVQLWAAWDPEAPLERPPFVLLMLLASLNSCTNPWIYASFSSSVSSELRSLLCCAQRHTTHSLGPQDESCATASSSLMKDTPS
IC50 [1] [µM],IC50 (oxytocin receptors) [nM],inhibition at 10 µM (oxytocin receptors) [%],SMILES
0.34,2500,93,"O=C(Nc1ccc(C(=O)N2CCc3cn[nH]c3-c3sccc32)cc1)c1ccc(F)cc1Cl [Example 1, N-[4-[(4,5-Dihydropyrazolo[3,4-d]thieno[3,2-b]azepin-6(1H)-yl)carbonyl]phenyl]-2-chloro-4-fluorobenzamide]"
0.0016,2500,57,"O=C(Nc1ccc(C(=O)N2CCc3cn[nH]c3-c3ncccc32)cc1)c1ccccc1-c1ccccc1 [Example 365, N-[4-[(4,5-Dihydropyrazolo[3,4-d]pyrido[3,2-b]azepin-6(1H)-yl)carbonyl]phenyl][1,1'-biphenyl]-2-carboxamide]"
0.03,2100,63,"Cc1ccc(F)cc1C(=O)Nc1ccc(C(=O)N2CCc3c[nH]nc3-c3ncccc32)cc1 [Example 367, N-[4-[4(4,5-Dihydropyrazolo[3,4-d]pyrido[3,2-b]azepin-6(1H)-yl)carbonyl]phenyl]-5-fluoro-2-methylbenzamide]"
